In patent publication US7022732B2, “Propanolamine derivative having 1, 4-benzodioxane ring” (Nisshin Pharma Inc., priority 2001, dated 2006):

Biological target: T1, human β3 adrenergic receptor (Homo sapiens, UniProt P13945)
T1 construct: expressed in transfected cells; host or cells: CHO cells (clone G4-I, kept under Geneticin selection)
Assay: cAMP production in G4-I cells, stimulating activity of human β3 adrenergic receptor (cAMP EIA)
Type: cell-based
Settings: cAMP production relative to isoproterenol maximum, CHO cells (G4-I) expressing human β3 receptor
Experimental: Representative compounds of the invention were assayed for their stimulating activity of human β3 adrenergic receptor. In the tests, there was used G4-I cloned with CHO cells expressing human β3 adrenergic receptor genes. A cAMP EIA kit for use was available from Amersham Farmacia.
G4-I was incubated under the atmosphere of 5% CO2 at 37° C. in a Han's F12 Nutrient Mixture medium containing 10% fetal calf serum, penicillin 100 U/mL, streptomycin 100 μg/mL, amphotericin B 25 μg/mL and Geneticin 400 μg/mL. When the reaction for cAMP production was carried out, frozen cells stocked were incubated for 3 days and then treated with trypsin to prepare a cell suspension. The cell suspension was diluted to 2×10^5 cells/mL with the medium. Then 1 ml each of the diluted suspension was dispensed into a 12-well plate dish.
The cells cultured for 24 hours were used to carry out the cAMP production reaction.
The culture medium was removed from the cells incubated on the 12-well plate dish. The cells were washed twice with 1 mL of Wash Buffer previously warmed to 37° C. and then 0.9 mL of Reaction Buffer was added. Cultivation was carried out on a water bath at 37° C. for 5 minutes and then 0.1 mL of an aqueous solution of the test compound or isoproterenol was added thereto. Reaction was further allowed to take place at 37° C. for 30 minutes. The reaction solution was taken out and then washed twice with 2 mL of D-PBS(-) followed by addition of 1 mL of the Extraction Buffer. The extraction procedure was performed using a plate mixer at 4° C. for 1 hour. The extract was stored at −20° C.
The cell extract frozen at −20° C. was thawed at 4° C. The cAMP of the extract in each well was assayed by means of a cAMP-EIA kit manufactured by Amersham Farmacia. Assay was performed in accordance with the manual attached to the kit. Adsorbance in a 96-well plate was determined using a microplate reader (Model Spectra MAX 250) manufactured by Molecular Device.
The protein amount of the above cell extract was assayed according to the dye-binding method using a CBB solution for quantitative determination of protein (available from Bio-Rad). Bovine serum albumin was used as a protein standard, and absorbance was determined using the above microplate reader (Model Spectra MAX 250) manufactured by Molecular Device.
Determination of cAMP and protein amounts was carried out in duplicate and mean values were adopted as measured values. The cAMP production amount of each sample was represented in terms of a numerical value of the cAMP amount (pmol) divided by cell protein amount (mg) (pmol/mg protein). […] For each sample, cAMP production amount was calculated and a relative cAMP production amount to the maximum cAMP production amount of isoproterenol (% of isoproterenol Max) was determined.

T1 sequence (P13945 whole entry): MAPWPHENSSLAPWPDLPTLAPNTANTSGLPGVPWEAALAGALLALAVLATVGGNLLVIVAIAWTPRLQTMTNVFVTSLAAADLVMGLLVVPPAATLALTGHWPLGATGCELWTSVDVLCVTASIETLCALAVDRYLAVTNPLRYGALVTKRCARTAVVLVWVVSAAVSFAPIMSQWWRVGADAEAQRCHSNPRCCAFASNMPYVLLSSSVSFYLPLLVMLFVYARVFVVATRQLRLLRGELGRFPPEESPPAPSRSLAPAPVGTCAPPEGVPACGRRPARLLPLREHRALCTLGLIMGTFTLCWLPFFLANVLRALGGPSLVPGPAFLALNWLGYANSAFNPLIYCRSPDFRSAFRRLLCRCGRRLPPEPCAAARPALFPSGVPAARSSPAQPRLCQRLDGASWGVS

SMILES	Intrinsic Activity (% of ISP) (test compound 1 μM)	Intrinsic Activity (% of ISP) (test compound 10 μM)
C[C@H](Cc1ccc2c(c1)OC[C@H](C(=O)O)O2)NC[C@H](O)COc1ccc(O)c(NS(C)(=O)=O)c1 [Example 2, 6-[2-(R)-[2-(S)-Hydroxy-3-(4-hydroxy-3-methanesulfonamidophenoxy)propylamino]propyl]-2,3-dihydro-1,4-benzodioxine-2-(R)-carboxylic acid]	76 % of ISP	
CS(=O)(=O)Nc1cc(OC[C@@H](O)CNCCc2ccc3c(c2)OC[C@H](C(=O)O)O3)ccc1O [Example 4, 6-[2-[2-(S)-Hydroxy-3-(4-hydroxy-3-methanesulfonamido-phenoxy]propylamino]ethyl]-2,3-dihydro-1,4-benzodioxine-2-(R)-carboxylic acid]	98 % of ISP	
C[C@H](Cc1ccc2c(c1)OC[C@H](C(=O)O)O2)NC[C@H](O)COc1ccc(O)cc1 [Example 12, 6-[2-(R)-[2-(S)-Hydroxy-3-(4-hydroxyphenoxy)propylamino]-propyl]-2,3-dihydro-1,4-benzodioxine-2-(R)-carboxylic acid]		73 % of ISP
COc1cc(O)ccc1OC[C@@H](O)CN[C@H](C)Cc1ccc2c(c1)OC[C@H](C(=O)O)O2 [Example 16, 6-[2-(R)-[2-(S)-Hydroxy-3-(4-hydroxy-2-methoxyphenoxy)-propylamino]propyl]-2,3-dihydro-1,4-benzodioxine-2-(R)-carboxylic acid]	61 % of ISP	
